From patent publication US4175125A, “Method for treating methicillin resistant staphylococcus aureus” (Eli Lilly and Company, priority 1978, dated 1979)
≈ marks a conversion by molar mass, not a printed value. Where two headings read alike, the source gives them in different places.

Tested on: methicillin-resistant Staphylococcus aureus
Test: Gradient plate test (MIC) against methicillin-resistant Staphylococcus aureus
Type: cell-based
Conditions: Staphylococcus aureus, read-out: minimum inhibitory concentration (MIC)
Method: The method used is essentially that described by Bryson and Szybalski in 1952 (Science 116:45-46). The inoculum treatment method used for penicillin resistant Staphylococci was reported by Godzeski et al in Antimicrobial Agents and Chemotherapy, May, 1969, pp. 547-554.
A standard Falcon square plastic petri dish is used. A layer of agar (10 ml.) is poured into one of the square dishes, the dish tipped 5 mm. off the horizontal, and the agar layer allowed to harden in this position. This bottom layer of agar contains the antibiotic, the serum, and/or other material to be tested. The medium is Difco Penassay Agar containing 2 percent agar. We routinely used 4 ml. of human or horse serum for "serum-inactivation" testing. […] Therefore, serum is routinely added only to the bottom layer.
After the bottom, slanted layer of agar medium has hardened, the plate is placed flat and another 10 ml. of medium added and allowed to harden.
The inoculum of resistant Staphylococci, as described, is prepared by diluting the water suspension 1/50 in 0.25 percent agar in sterile water or saline. For Gram negative organisms, an overnight broth culture is diluted 1/50 in the 0.25 percent agar-water. This dilution is thoroughly shaken to evenly suspend the bacteria. To streak the plate, we use a 1 ml. pipet containing an aliquot of the final […] agar dilution. After a little practice, a smooth even stroke of inoculum can be laid down very rapidly. The trick is in the smoothness of the streak--it must be accomplished uniformly and quickly.
After 24 hours incubation at 35°-37° C. the plates are read by simply measuring the length of bacterial growth as a percentage of the entire streak distance which is then converted to the percent of antibiotic concentration in the plate.
Average values of duplicate measurements are calculated and the M.I.C.'s reported are average of 2 streaks on the plate and from 2 to 3 duplicate plates. Eight streaks can be easily placed on each plate. If sharp end points are not obtained, the middle concentration between the beginning of inhibition of the streak to the end of growth is measured. The concentration of the antibiotic under examination is varied from plate to plate in a series as follows: […]
This method of screening penicillins and cephalosporins is quite satisfactory. Control plates containing penicillin and staphcillin or prostaphlin, or other control antibiotic, are used daily for the resistant staphylococcal activity screen. The gradient plate method has shown differences between antibiotics that were not apparent by any other methods of screening. […] We believe that the gradient plate screen is more sensitive to small differences between related antibiotics than other methods and pictures of the plates can provide a permanent record. The method also lends itself readily to modification of specific purposes--e.g., cross gradients.
The compounds listed below are examples of compounds useful in the method of this invention. After the compound name there is given in parentheses, where tested, the minimum inhibitory concentrations (MIC) in micrograms per milliliter (μg/ml) for the compound in the above described gradient plate procedure test against methicillin-resistant Staphylococcus aureus, (in the absence of blood serum/in the presence of 20 percent blood serum).
and pharmaceutically acceptable salts thereof. The abbreviation "s.z." means skip zones.

[1] = in the presence of 20 percent blood serum

Row | MIC (in the absence of blood serum) [µg/mL] | MIC [1] [µg/mL] | SMILES
1 | 1 (≈ 2.04 µM) | 1.7 | CC(=O)OCC1=C(C(=O)O)N2C(=O)C(NC(=O)CSc3ccc(Cl)c(Cl)c3)C2SC1 (stereo not shown) [Example 1, 7-(3,4-dichlorophenylthioacetamido)cephalosporanic acid]
2 | 0.8 (≈ 1.63 µM) | 1 | CC(=O)OCC1=C(C(=O)O)N2C(=O)C(NC(=O)CSc3cc(Cl)ccc3Cl)C2SC1 (stereo not shown) [Example 2, 7-(2,5-Dichlorophenylthioacetamido)-cephalosporanic acid]
